Reference: patent publication US9233964B2, “Sulfamide piperazine derivatives as protein tyrosine kinase inhibitors and pharmaceutical use therof” (LEO PHARMA A/S, priority 2011, dated 2016)

Assays:
Format in all cases: biochemical
JAK1 = biological target: T1, JAK1 (Homo sapiens, UniProt P23458); assay: JAK kinase assay (HTRF, phosphorylation of synthetic peptide), JAK1; details: catalytic domain, ATP at Km (7 μM); read-out: JAK1 kinase inhibitory activity (EC50)
T1 construct: JAK1 (aa 850-1154) and TYK2 (aa 871-1187) are expressed with an N-terminally fused GST-tag; GST (N); purchased Carna Biosciences, Inc; host or cells: baculovirus expression system
In short: (§1)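 Catalytic-domain human JAK1 (GST-tagged, aa 850-1154) or His-tagged JAK2, baculovirus-expressed, phosphorylated 1 µM biotinylated TK peptide at Km ATP (JAK1 7 µM, 10 mM MgCl2, 50 nM SEB; JAK2 4 µM, 5 mM MgCl2) in pH 7.0 Hepes, 20-30 min RT. EDTA stop; overnight streptavidin-XL665/cryptate HTRF read.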

TYK2 = biological target: T2, TYK2 (Homo sapiens, UniProt P29597); assay: JAK kinase assay (HTRF, phosphorylation of synthetic peptide), TYK2; details: catalytic domain, ATP at Km (13 μM); read-out: TYK2 kinase inhibitory activity (EC50)
T2 construct: JAK1 (aa 850-1154) and TYK2 (aa 871-1187) are expressed with an N-terminally fused GST-tag; GST (N); purchased Carna Biosciences, Inc; host or cells: baculovirus expression system
T2 sequence (P29597 871-1187): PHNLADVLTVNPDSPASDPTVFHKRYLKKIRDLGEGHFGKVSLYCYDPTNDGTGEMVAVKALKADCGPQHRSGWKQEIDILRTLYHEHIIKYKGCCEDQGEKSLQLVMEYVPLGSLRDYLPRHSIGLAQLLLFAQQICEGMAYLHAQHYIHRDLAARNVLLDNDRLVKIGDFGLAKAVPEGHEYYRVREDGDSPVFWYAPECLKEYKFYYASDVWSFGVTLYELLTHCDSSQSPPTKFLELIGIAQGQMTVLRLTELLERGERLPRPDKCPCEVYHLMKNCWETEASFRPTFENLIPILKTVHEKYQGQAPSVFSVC
In short: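 1 µM biotinylated TK peptide at Km ATP in pH 7.0 Hepes, 20-30 min RT. EDTA stop; overnight streptavidin-XL665/cryptate HTRF read.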

JAK3 = biological target: T3, JAK3 (Homo sapiens, UniProt P52333); assay: JAK kinase assay (HTRF, phosphorylation of synthetic peptide), JAK3; details: catalytic domain, ATP at Km (2 μM); read-out: JAK3 kinase inhibitory activity (EC50)
T3 construct: All four purified enzymes contain only the catalytic domain; His (N); purchased Carna Biosciences, Inc; host or cells: baculovirus expression system

JAK2 = biological target: T4, JAK2 (Homo sapiens, UniProt O60674); assay: JAK kinase assay (HTRF, phosphorylation of synthetic peptide), JAK2; details: catalytic domain, ATP at Km (4 μM); read-out: JAK2 kinase inhibitory activity (EC50)
T4 construct: All four purified enzymes contain only the catalytic domain; His (N); purchased Carna Biosciences, Inc; host or cells: baculovirus expression system
In short: as §1

T1 sequence (P23458 850-1154): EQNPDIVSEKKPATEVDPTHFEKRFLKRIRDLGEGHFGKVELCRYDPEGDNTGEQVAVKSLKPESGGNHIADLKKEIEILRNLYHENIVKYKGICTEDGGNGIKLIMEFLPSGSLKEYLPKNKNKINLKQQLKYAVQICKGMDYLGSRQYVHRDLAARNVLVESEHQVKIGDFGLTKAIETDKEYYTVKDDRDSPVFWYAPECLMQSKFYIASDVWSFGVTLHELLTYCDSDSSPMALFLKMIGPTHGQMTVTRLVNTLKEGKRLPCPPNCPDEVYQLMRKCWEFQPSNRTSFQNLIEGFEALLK
T4 sequence (O60674 849-1124 limits assumed): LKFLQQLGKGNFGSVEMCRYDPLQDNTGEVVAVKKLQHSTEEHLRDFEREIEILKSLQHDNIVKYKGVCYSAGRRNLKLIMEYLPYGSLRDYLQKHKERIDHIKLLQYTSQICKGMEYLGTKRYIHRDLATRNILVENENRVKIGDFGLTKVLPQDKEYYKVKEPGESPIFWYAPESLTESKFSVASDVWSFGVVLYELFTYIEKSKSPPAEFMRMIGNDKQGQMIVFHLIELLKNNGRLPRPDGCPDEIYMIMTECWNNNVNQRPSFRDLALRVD
T3 sequence (P52333 822-1111 limits assumed): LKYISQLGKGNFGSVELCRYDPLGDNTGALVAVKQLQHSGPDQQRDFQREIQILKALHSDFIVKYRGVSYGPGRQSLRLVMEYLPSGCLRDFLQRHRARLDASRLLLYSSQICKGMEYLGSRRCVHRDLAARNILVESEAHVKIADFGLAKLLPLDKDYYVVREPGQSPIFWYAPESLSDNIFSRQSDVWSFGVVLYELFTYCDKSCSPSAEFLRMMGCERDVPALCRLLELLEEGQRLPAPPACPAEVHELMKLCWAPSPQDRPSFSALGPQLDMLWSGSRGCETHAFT

Row | EC50 (JAK1) | EC50 (TYK2) | EC50 (JAK3) | EC50 (JAK2) | Compound
1 | < 100 nM | > 500 nM | 100 to 500 nM | < 100 nM | O=S(=O)(N(CCO)C1COC1)N1CCN(c2ncnc3[nH]ccc23)CC12CC2 [Example 116, N-(2-hydroxyethyl)-N-(oxetan-3-yl)-5-(7H-pyrrolo[2,3-d]pyrimidin-4-yl)-5,8-diazaspiro[2.5]octane-8-sulfonamide]
2 | < 100 nM | 100 to 500 nM | < 100 nM | < 100 nM | CN(C[C@@H]1CCCN1S(C)(=O)=O)S(=O)(=O)N1CCN(c2ncnc3[nH]ccc23)CC12CC2 [Example 194, N-methyl-N-[[(2S)-1-methylsulfonylpyrrolidin-2-yl]methyl]-5-(7H-pyrrolo[2,3-d]pyrimidin-4-yl)-5,8-diazaspiro[2.5]octane-8-sulfonamide]
3 | < 100 nM | < 100 nM | 100 to 500 nM | < 100 nM | CCN(C1CCC1)S(=O)(=O)N1CCN(c2ncnc3[nH]ccc23)CC12CC2 [Example 99, N-cyclobutyl-N-ethyl-5-(7H-pyrrolo[2,3-d]pyrimidin-4-yl)-5,8-diazaspiro[2.5]octane-8-sulfonamide]
4 | < 100 nM | 100 to 500 nM | < 100 nM | < 100 nM | CNS(=O)(=O)N1CCN(c2ncnc3[nH]ccc23)CC12CC2 [Int 3]
5 | < 100 nM | 100 to 500 nM | < 100 nM | < 100 nM | Cc1noc(C)c1CCN(C)S(=O)(=O)N1CCN(c2ncnc3[nH]ccc23)CC12CC2 [Example 32, 7-(7H-Pyrrolo[2,3-d]pyrimidin-4-yl)-4,7-diaza-spiro[2.5]octane-4-sulfonic acid [2-(3,5-dimethyl-isoxazol-4-yl)-ethyl]-methyl-amide]
6 | < 100 nM | 100 to 500 nM | < 100 nM | < 100 nM | CN(Cc1ccno1)S(=O)(=O)N1CCN(c2ncnc3[nH]ccc23)CC12CC2 [Example 68, N-(isoxazol-5-ylmethyl)-N-methyl-5-(7H-pyrrolo[2,3-d]pyrimidin-4-yl)-5,8-diazaspiro[2.5]octane-8-sulfonamide]
7 | < 100 nM | 100 to 500 nM | 100 to 500 nM | < 100 nM | CN(CC1CCOCC1)S(=O)(=O)N1CCN(c2ncnc3[nH]ccc23)CC12CC2 [Example 89, N-methyl-5-(7H-pyrrolo[2,3-d]pyrimidin-4-yl)-N-(tetrahydropyran-4-ylmethyl)-5,8-diazaspiro[2.5]octane-8-sulfonamide]
8 | < 100 nM | 100 to 500 nM | 100 to 500 nM | < 100 nM | CN(CC1CCCCO1)S(=O)(=O)N1CCN(c2ncnc3[nH]ccc23)CC12CC2 (stereo not drawn) [Example 64, N-methyl-5-(7H-pyrrolo[2,3-d]pyrimidin-4-yl)-N-(tetrahydropyran-2-ylmethyl)-5,8-diazaspiro[2.5]octane-8-sulfonamide]
9 | < 100 nM | > 500 nM | 100 to 500 nM | < 100 nM | CN(CC1CCNCC1)S(=O)(=O)N1CCN(c2ncnc3[nH]ccc23)CC12CC2 [Int 26]
10 | < 100 nM | > 500 nM | 100 to 500 nM | < 100 nM | CN(C[C@@H]1CCCN1)S(=O)(=O)N1CCN(c2ncnc3[nH]ccc23)CC12CC2 [Int 52]
11 | < 100 nM | < 100 nM | < 100 nM | < 100 nM | CN(CC1CC(F)(F)C1)S(=O)(=O)N1CCN(c2ncnc3[nH]ccc23)CC12CC2 [Example 85, N-[(3,3-difluorocyclobutyl)methyl]-N-methyl-5-(7H-pyrrolo[2,3-d]pyrimidin-4-yl)-5,8-diazaspiro[2.5]octane-8-sulfonamide]

More lines, now with the values behind:

Row | Compound | EC50 (JAK1) | EC50 (TYK2) | EC50 (JAK3) | EC50 (JAK2)
12 | CC(O)CC(=O)N1CCC(CN(C)S(=O)(=O)N2CCN(c3ncnc4[nH]ccc34)CC23CC3)C1 (stereo not drawn) [Example 124, N-[[1-(3-hydroxybutanoyl)pyrrolidin-3-yl]methyl]-N-methyl-5-(7H-pyrrolo[2,3-d]pyrimidin-4-yl)-5,8-diazaspiro[2.5]octane-8-sulfonamide] | < 100 nM | > 500 nM | 100 to 500 nM | < 100 nM
13 | CCCS(=O)(=O)N1CCC(CN(C)S(=O)(=O)N2CCN(c3ncnc4[nH]ccc34)CC23CC3)C1 (stereo not drawn) [Example 118, N-methyl-N-[(1-propylsulfonylpyrrolidin-3-yl)methyl]-5-(7H-pyrrolo[2,3-d]pyrimidin-4-yl)-5,8-diazaspiro[2.5]octane-8-sulfonamide] | < 100 nM | 100 to 500 nM | < 100 nM | < 100 nM
14 | CN(CC1CCCN(C(=O)CCC#N)C1)S(=O)(=O)N1CCN(c2ncnc3[nH]ccc23)CC12CC2 (stereo not drawn) [Example 153, N-[[1-(3-cyanopropanoyl)-3-piperidyl]methyl]-N-methyl-5-(7H-pyrrolo[2,3-d]pyrimidin-4-yl)-5,8-diazaspiro[2.5]octane-8-sulfonamide] | < 100 nM | > 500 nM | 100 to 500 nM | < 100 nM
15 | N#CCCN(CC1CCCO1)S(=O)(=O)N1CCN(c2ncnc3[nH]ccc23)CC12CC2 (stereo not drawn) [Example 142, N-(2-cyanoethyl)-5-(7H-pyrrolo[2,3-d]pyrimidin-4-yl)-N-(tetrahydrofuran-2-ylmethyl)-5,8-diazaspiro[2.5]octane-8-sulfonamide] | < 100 nM | 100 to 500 nM | < 100 nM | < 100 nM
16 | CN(C[C@@H]1CC(F)(F)CN1C=O)S(=O)(=O)N1CCN(c2ncnc3[nH]ccc23)CC12CC2 [Example 157, N-[[(2S)-4,4-difluoro-1-formyl-pyrrolidin-2-yl]methyl]-N-methyl-5-(7H-pyrrolo[2,3-d]pyrimidin-4-yl)-5,8-diazaspiro[2.5]octane-8-sulfonamide] | < 100 nM | < 100 nM | < 100 nM | < 100 nM
17 | O=S(=O)(NC1CCCC1)N1CCN(c2ncnc3[nH]ccc23)CC12CC2 [Example 144, N-cyclopentyl-5-(7H-pyrrolo[2,3-d]pyrimidin-4-yl)-5,8-diazaspiro[2.5]octane-8-sulfonamide] | < 100 nM | 100 to 500 nM | 100 to 500 nM | < 100 nM
18 | O=S(=O)(NC1CCC1)N1CCN(c2ncnc3[nH]ccc23)CC12CC2 [Int 30] | < 100 nM | > 500 nM | 100 to 500 nM | < 100 nM
19 | CN(CC1CCCS(=O)(=O)C1)S(=O)(=O)N1CCN(c2ncnc3[nH]ccc23)CC12CC2 (stereo not drawn) [Example 76, N-[(1,1-dioxothian-3-yl)methyl]-N-methyl-5-(7H-pyrrolo[2,3-d]pyrimidin-4-yl)-5,8-diazaspiro[2.5]octane-8-sulfonamide] | < 100 nM | 100 to 500 nM | < 100 nM | < 100 nM
20 | CC(=O)N(CC1CCS(=O)(=O)CC1)S(=O)(=O)N1CCN(c2ncnc3[nH]ccc23)CC12CC2 [Example 173, N-[(1,1-dioxothian-4-yl)methyl]-N-[[5-(7H-pyrrolo[2,3-d]pyrimidin-4-yl)-5,8-diazaspiro[2.5]octan-8-yl]sulfonyl]acetamide] | < 100 nM | 100 to 500 nM | < 100 nM | < 100 nM
21 | CN(C[C@@H]1CC(F)(F)CN1C(=O)CCO)S(=O)(=O)N1CCN(c2ncnc3[nH]ccc23)CC12CC2 [Example 155, N-[[(2S)-4,4-difluoro-1-(3-hydroxypropanoyl)pyrrolidin-2-yl]methyl]-N-methyl-5-(7H-pyrrolo[2,3-d]pyrimidin-4-yl)-5,8-diazaspiro[2.5]octane-8-sulfonamide] | < 100 nM | < 100 nM | < 100 nM | < 100 nM
